The results in this text go back to US20210238173A1, “MITOGEN-ACTIVATED PROTEIN KINASE KINASE 7 INHIBITORS” (Yeda Research and Development Co. Ltd., priority 2018, published 2021).

Structures are written as SMILES.

The target in one test is T1, MKK4 (Homo sapiens, UniProt P45985).
T1 construct: purchased Nanosyn (contract assay)
T1 sequence (P45985 1-399): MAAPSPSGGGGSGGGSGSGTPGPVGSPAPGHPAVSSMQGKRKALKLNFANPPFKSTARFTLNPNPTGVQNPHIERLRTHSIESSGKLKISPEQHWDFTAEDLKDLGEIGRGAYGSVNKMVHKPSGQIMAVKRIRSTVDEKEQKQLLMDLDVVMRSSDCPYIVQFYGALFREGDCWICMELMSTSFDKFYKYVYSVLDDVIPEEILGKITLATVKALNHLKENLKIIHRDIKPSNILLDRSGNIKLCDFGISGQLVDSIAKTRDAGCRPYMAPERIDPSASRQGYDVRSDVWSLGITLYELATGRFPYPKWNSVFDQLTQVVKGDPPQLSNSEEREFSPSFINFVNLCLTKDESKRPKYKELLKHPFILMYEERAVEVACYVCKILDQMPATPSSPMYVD
The test can be described thus: In vitro activity assay for MKK4 (Nanosyn). It counts as biochemical. The procedure:
(§1) In Vitro Activity Assays for MKK7 or MKK4 (Carried by Nanosyn):
(§2) Exemplary test compounds, according to some embodiments of the present invention, were diluted in DMSO to a final concentration that ranged from 10 μM to 0.0565 nM, while final concentration of DMSO in all assays was kept at 1%. Reference compound, Staurosporine, was tested in a similar manner. […] After incubation, activity of now activated JNK1 was tested in the presence of 30 μM ATP ATP for 17 h (MKK7) or 4 h (MKK4).

In the next test the test system is pJNK in HEK293 cells. The test can be described thus: In-cell western (ICW) pJNK inhibition in HEK293. In kind it is cell-based. As to conditions: Homo sapiens, HEK293, HEK293, ICW, 2 h pre-incubation, sorbitol stimulation. The procedure:
(§3) HEK293, Beas2B and 3T3 cells were plated 24 hours before procedure on 384 well clear bottom black flat plates (Corning) pre-coated with Fibronectin (Sigma) diluted in PBS to a concentration of 5 μg/ml 45 minutes prior to cells introduction. Cells were plated using Multidrop™ Combi reagent dispenser (Thermo Fisher Scientific). Compound, reagents and antibody dispensing as well as washes were performed with a CyBio liquid handler (Analytik). Cells were pre-incubated with a small molecule or up to 1% DMSO for 2 h before fixation. HEK293, 3T3 or Beas2B cells were treated with 0.6M/0.2M/0.2M D-Sorbitol/PBS (Sigma) for 20/40/40 min. respectively, before fixation. Media was removed and wells were immediately fixed with 150 μl per well of 3.7% formaldehyde/PBS fixing solution for 20 min. Formaldehyde was then aspired and cells were permeabilized with 150 μl of 0.5% Triton x-100/PBS solution for 10 min. After aspiration cells were washed with ice-cold methanol and stored at −20° C., for 10 min. Methanol was aspired and cells were blocked with 150 μl blocking buffer (LICOR) for 90 min. Primary antibody Phospho-SAPK/JNK T183/Y185 (CST; 9251S) was diluted 1:1000 in blocking buffer and was applied 50 μl per well, except control wells to which only blocking buffer was applied, O.N. (16 h) at 4° C. with mild shaking. Primary antibody was aspired, wells were washed with 150 μl 0.1% Tween20/PBS (Sigma) washing solution three times for 7 min. IRDye® 800CW Goat anti-Rabbit IgG Secondary antibody (LICOR) was then diluted 1:1200 in blocking buffer with 50 μl applied per well on control wells only (no CellTag control), then CellTag700 (1:2000) was added to the solution and 50 μl were added to all experiment wells, for 1 h at room temperature. Wells were aspired and washed again with 150 μl 0.1% Tween20/PBS (Sigma) washing solution three times for 7 min. plate was dried and scanned with Odyssey CLx imaging system at 700 nm and 800 nm (Licor). Wells signals were analyzed with Odyssey software. The signal was normalized by the CellTag700 signal.
(§4) To rapidly assess the cellular activity (EC50) with full dose response curves of the MKK7 covalent inhibitors, according to some embodiments of the present invention, an in-cell western assay was adapted to a 384 well plate format over traditional western blot, and monitored phospho-JNK (pJNK) levels in response to osmotic shock. We first characterized the dynamics of pJNK in response to sorbitol. Sufficient dynamic range for pJNK is achieved at 20 minutes in HEK293 cells and at 40 minutes in 3T3 and Beas2B cells. The compound's activity was assessed by pre-treating cells with either compound or DMSO for 2 hours, followed by Sorbitol stimulation. The response of pJNK, and its substrates, pc-Jun and pATF2, was measured, as well as pP38, which is a substrate of MKK4 but not MKK7, and pERK in HEK293 cells, and the results are presented in Table 5 below.

In a further test the test system is pATF2 in HEK293 cells. The test can be described thus: pATF2 inhibition in HEK293 cells. In kind it is cell-based. The conditions noted are these: Homo sapiens. The procedure: as §3, with “Primary antibody was aspired, wells were washed with 150 μl 0.1% Tween20/PBS (Sigma) washing solution three times for 7 min. IRDye® 800CW Goat anti-Rabbit IgG Secondary antibody (LICOR) was then diluted 1:1200 in blocking buffer with 50 μl applied per well on control wells only (no CellTag control), then CellTag700 (1:2000) was added to the solution and 50 μl were added to all experiment wells, for 1 h at room temperature. Wells were aspired and washed again with 150 μl 0.1% Tween20/PBS (Sigma) washing solution three times for 7 min. plate was dried and scanned with Odyssey CLx imaging system at 700 nm and 800 nm (Licor).” left out, “The signal was normalized by the CellTag700 signal.” left out
as §4, with “We first characterized the dynamics of pJNK in response to sorbitol. Sufficient dynamic range for pJNK is achieved at 20 minutes in HEK293 cells and at 40 minutes in 3T3 and Beas2B cells.” left out

For a further test, the system named is p-cJun in HEK293 cells. The test can be described thus: p-cJun inhibition in HEK293 cells. As to conditions: Homo sapiens. In kind it is cell-based. The procedure: as §3, with “Primary antibody was aspired, wells were washed with 150 μl 0.1% Tween20/PBS (Sigma) washing solution three times for 7 min. IRDye® 800CW Goat anti-Rabbit IgG Secondary antibody (LICOR) was then diluted 1:1200 in blocking buffer with 50 μl applied per well on control wells only (no CellTag control), then CellTag700 (1:2000) was added to the solution and 50 μl were added to all experiment wells, for 1 h at room temperature. Wells were aspired and washed again with 150 μl 0.1% Tween20/PBS (Sigma) washing solution three times for 7 min. plate was dried and scanned with Odyssey CLx imaging system at 700 nm and 800 nm (Licor).” left out, “The signal was normalized by the CellTag700 signal.” left out
as §4, with “We first characterized the dynamics of pJNK in response to sorbitol. Sufficient dynamic range for pJNK is achieved at 20 minutes in HEK293 cells and at 40 minutes in 3T3 and Beas2B cells.” left out

The test system of a further test is pP38 in HEK293 cells. The test can be described thus: pP38 response in HEK293 cells. The conditions noted are these: at 10 μM. It counts as cell-based. The procedure:
as §4
(§5) With similar values for pcJun (2.26 μM and 1.67 μM, respectively) and pATF2 (2.79 μM 5.19 μM, respectively).

In a further test the test system is pERK in HEK293 cells. The test can be described thus: pERK response in HEK293 cells. In kind it is cell-based. The conditions noted are these: at 10 μM. The protocol:
as §4, §5

Another test concerns the target T2, MKK7 (Homo sapiens, UniProt O14733).
T2 construct: purchased Nanosyn (contract assay)
T2 sequence (O14733 1-419): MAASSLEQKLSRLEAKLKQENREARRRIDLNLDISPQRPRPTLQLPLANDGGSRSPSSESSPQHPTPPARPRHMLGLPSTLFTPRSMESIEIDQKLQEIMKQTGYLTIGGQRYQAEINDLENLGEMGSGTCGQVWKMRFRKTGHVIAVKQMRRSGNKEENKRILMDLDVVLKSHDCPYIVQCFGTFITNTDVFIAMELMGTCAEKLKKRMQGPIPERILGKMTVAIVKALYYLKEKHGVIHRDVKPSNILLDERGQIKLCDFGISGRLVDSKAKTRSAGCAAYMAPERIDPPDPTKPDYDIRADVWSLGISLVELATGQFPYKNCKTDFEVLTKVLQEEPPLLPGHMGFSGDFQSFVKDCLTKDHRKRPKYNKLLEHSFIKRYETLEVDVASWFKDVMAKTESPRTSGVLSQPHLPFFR
The test can be described thus: In vitro kinase activity assay for MKK7 (Nanosyn). It counts as biochemical. The conditions noted are these: read-out: MKK7 IC50 in vitro. The procedure:
Based on visual inspection of the top 500 predictions, 10 compounds were selected for synthesis and testing (see, Table 1). The “Docking rank” is given in its respective run, whereas four virtual libraries of acrylamides were docked separately, based on the amine precursor for the acrylamide (primary or secondary aliphatic amines, primary or secondary aromatic amines). In vitro kinase activity assay was carried out by Nanosyn, as described below.
as §1, §2

A further test has as its system pJNK in 3T3 WT cells. The test can be described thus: In-cell western (ICW) pJNK inhibition in 3T3 WT. It counts as cell-based. The conditions noted are these: 3T3 WT, sorbitol stimulation. The procedure:
as §3, §4
Wildtype 3T3 cells, 3T3 MKK7 double knock-out (MKK7^−/−) cells and MKK4/7 double knockouts (MKK4/7^−/−) were used to validate on target activity of the MKK7 covalent inhibitors presented herein.

Another test concerns JNK activation. The test can be described thus: KTR reporter live cell imaging of JNK activation. In kind it is cell-based. The conditions noted are these: Homo sapiens; HEK293 cells; read-out: EC50 of test and control compounds. From the text:
As an orthogonal assay for the ICW we used a KTR reporter cell line for JNK activation via live cell imaging.

For test [1], the target named is T3, MKK7 in MDA-MB-231 lysate (Homo sapiens, UniProt O14733).
T3 construct: endogenous in cells; host or cells: MDA-MB-231
T3 sequence (O14733 1-419): T2 sequence (O14733 1-419)
The test can be described thus: Proteomic selectivity labeling in human cell lysate (MDA-MB-231). In kind it is binding.

The next test concerns primary mouse B-cells. The test can be described thus: Primary B-cell activation (CD86+ FACS) in response to LPS. It counts as cell-based. As to conditions: Mus musculus, B-cell. The text has this: Compounds Block Activation of Primary Mouse B-Cells:
JNK is known to mediate activation of B-cells in response to lypopolysacharide (LPS) through the TLR4 signaling pathway as well as in response to B-cell receptor activation (stimulated e.g. with an anti-IgM antibody). Primary B-cells were isolated from the spleen of mice and assessed for their B-cell activation, via FACS analysis of CD86+ expression, in response to LPS in the presence or absence of the covalent MKK7 enzyme inhibitors presented herein, as well as a positive control JNK inhibitor, JNK-IN-8.
At 10 μM and 2 hours pre-incubation before stimulation, GO80 was able to inhibit 60% of the CD86+ response.

With `C=CC(=O)Nc1cccc(-c2n[nH]c3cc([N+](=O)[O-])ccc23)c1` [GO37], the IC50 against MKK4 was over 10 µM; on MKK7, 0.014 µM; in the test with pJNK in 3T3 WT cells it was 5.33 µM. The EC50 stood at 0.73 µM in the test with pJNK in HEK293 cells; 3.71 µM with pATF2 in HEK293 cells; 2.52 µM in the test with p-cJun in HEK293 cells; 4.2 µM with pJNK in 3T3 WT cells (ICW, 2 h pre-incubation). The “effect on pP38 levels” value with pP38 in HEK293 cells is “did not affect”. In addition, in the test on pERK in HEK293 cells, the “effect on pERK levels” value is “did not affect”.

Consider `CCC(=O)Nc1cccc(-c2[nH]nc3ccccc23)c1` [PCM520], for which the EC50 with JNK activation is over 10 µM.

For the compound `C=CC(=O)Nc1cccc(-c2nn(C)c3ccccc23)c1` [PCM521], the EC50 in the test with JNK activation is over 10 µM.

Take `C#CCNC(=O)c1cc(NC(=O)C=C)cc(-c2n[nH]c3ccccc23)c1` [PCM548]: the proteins labeled result is “the only target” in test [1] (at 2 μM), “MKK7 seems to be the dominant target” in test [1] (at 5 μM) and “labels many proteins” in test [1] (at 10 μM). The inhibition at 10 µM in the test on primary mouse B-cells (10 μM, 2 hours pre-incubation) was about 90%. Also, it took 5.3 µM to reach half-maximal inhibition in the test with primary mouse B-cells (full dose response) (IC50).
